Patent US20220378773A1, “METHODS FOR TREATING LEUKEMIA AND USE OF A LEUKEMIC STEM CELL SIGNATURE TO PREDICT CLINICAL SENSITIVITY TO THERAPIES” (CELGENE CORPORATION, priority 2019, published 2022)

Tests used:
GSPT1 [1] = target: T1, GSPT1 (Homo sapiens, UniProt P15170+Q96SW2); test: In vivo GSPT1 expression in xenograft AML model (intracellular FACS); set-up: species or system mice
T1 construct: endogenous in cells; host or cells: primary AML patient cells (peripheral blood mononuclear cells) in short-term suspension culture
Experimental: After 4 weeks of transplantation with AML cells, mice were treated with Compound D at 2.5 mg/kg twice a day for 3 doses totally. Four hours after the last treatment, cells were harvested from both injected RF and non-injected BM of each mouse and were stained with CD45-FITC (BD Biosciences, USA), fixed and permeabilized. Cells were then stained with GSPT1-Alexa Fluor 647 for intracellular FACS to detect the expression of GSPT1 in engrafted leukemic cells.

[2] = tested on: primary acute myeloid leukemia blasts; test: In vitro apoptosis (Annexin V) and cell count of primary AML blasts; format: cell-based, human
Experimental: Annexin V-PE apoptosis detection kit (BD Pharmingen, BD Bioscience, USA) was used to assess apoptosis.
(§1) Cell Culture: Materials used for in vitro assays of AML cells included X-VIVO 10 medium supplemented with 15% BIT, and growth factors including 100 ng/mL of stem cell factor, 20 ng/mL of IL-6, 20 ng/mL of G-CSF, 20 ng/mL of IL-3, 100 ng/mL of Flt 3 ligand (each provided by Amgen, USA), 20 ng/mL of GM-CSF (R&D Systems, USA), and 50 ng/mL of thrombopoietin (Kirin Brewery, Japan).
(§2) Assay Procedure: After 4 and 24 hours of in vitro culture with DMSO or Compound D, cells were harvested for GSPT1 expression and apoptosis. Levels of GSPT1 were analyzed by flow cytometry using median fluorescence intensity (MFI) and normalized against DMSO controls. Apoptosis was also analyzed by flow cytometry and measured as percentage of cells which were positive for cleaved caspase 3/7.
(§3) Viably frozen primary leukemia cells were thawed and plated in suspension culture in the Iscove's Modified Dulbecco's Medium plus 15% BIT Serum Substitute (Stem Cell Technology, Canada), supplemented with multiple human growth factors. Compound D was added to the culture at indicated concentrations.
(§4) For GSPT1 expression, intracellular flow cytometry (FACS) was performed at 24 hours in culture by staining cells with GSPT1 conjugated with Alexa Fluor 647. For apoptosis, cells were harvested at 24 hours in culture and stained with Annexin V-PE and 7-aminoactinomycin D (7AAD) (BD Biosciences, USA).

[3] = tested on: AML graft (CD34, CD15, CD14, CD11b); test: Cell surface marker phenotype of AML graft after treatment; format: in vivo, NOD/SCID mice
Text: After treatment finished, cells were harvested from both injected right femur (RF) and non-injected bone marrow (BM, including left femur, 2 tibias), and stained with human antibodies to assess the engraftment levels of AML. Antibodies used for staining included: Mouse anti-human CD45-APC, CD15-FITC, CD34-APC7, CD38-PC7 (BD Biosciences, USA), CD14-PE, CD33-PC5 (Beckman Coulter, USA), CD19-V450, CD19-AF700, CD11b-APC7, CD34-BV421 (BD Biosciences, USA), and propidium iodide (PI; Invitrogen, USA).
With the observation that Compound D has dramatic effect against AML in mice, the question of whether Compound D targets primitive leukemic cells and induces differentiation was investigated next because AML cells are immature blasts with differentiation and maturation blockage in patients. Samples that were focused on were the samples that still had clear residual leukemia cells in the mice following Compound D treatment. […] The majority of cells harvested from the mice transplanted with patient sample 120093 were CD34+ primitive cells lacking in CD15 expression. […] CD11b is also a myeloid differentiation marker and was increased on patient 150250 grafted cells in parallel with increased expression of another myeloid differentiation marker CD15. […] The changes of CD15, CD14 and CD34 positive populations are summarized in FIGS. 12C-12E and 3 different patterns after Compound D treatment are apparent: increase, decrease, or no change of the populations in AML, graft. The samples with reduction of CD34+ primitive cells and increase of CD15+ and/or CD14+ cells are the samples responding well to Compound D (such as patient samples 110555, 110500, and 120093). […] Secondary transplantation may be performed to determine whether Compound D targeted the LSCs with self-renewal capacity.

[4] = format: physicochemical
Text: Formulation: 5% NMP/45% polyethylene glycol (PEG) 400/50% Saline; NMP—Catalogue no. 69118 (new no. M79603-1L), Fluka; PEG400—Catalogue no. 81172-1L, Fluka; Saline—0.9% sodium chloride.
Preparation: Weigh the desired amount of compound in glass vial. Add NMP and vortex. Make sure that entire compound is wet. Add PEG400 and vortex until clear solution without particulates. Add saline slowly and mix thoroughly for about a minute with hand held homogenizer with disposable tip.

GSPT1 [5] = target: T1, GSPT1; test: In vitro GSPT1 degradation in primary AML cells (flow cytometry, MFI); format: cell-based
Experimental: 6.2.3.1. In Vitro Degradation of G1 to S Phase Transition Protein 1 (GSPT1) by Compound D and Apoptosis Assay
Preparation of Test Article Stock Solutions and Dilutions: Compound D was prepared in anhydrous DMSO to make a 1 M stock solution then further diluted to final concentrations of 3, 30, and 100 nM.
as §1, §2, §3, §4

[6] = tested on: normal cord blood-derived human graft; set-up: species or system NOD/SCID mice; conditions: mouse, in vivo
Experimental: Normal cord blood experiment was carried out similar to what has been described as above but using CD34+ cells isolated from normal cord blood. Two or three normal donors were pulled together to generate enough cells for each of the CB engraftments, termed CB1 and CB2.
Compound D toxicity on normal hematopoietic cells was investigated using CB samples. Mice were transplanted with two different CB samples (CB1 and CB2) and dosed with 2.5 mg/kg Compound D or vehicle control BID intraperitoneally. Flow cytometric analyses from a representative mouse from the vehicle- and Compound D-treated groups are shown in FIG. 8A and FIG. 8B, respectively.

T1 sequence (P15170 whole entry): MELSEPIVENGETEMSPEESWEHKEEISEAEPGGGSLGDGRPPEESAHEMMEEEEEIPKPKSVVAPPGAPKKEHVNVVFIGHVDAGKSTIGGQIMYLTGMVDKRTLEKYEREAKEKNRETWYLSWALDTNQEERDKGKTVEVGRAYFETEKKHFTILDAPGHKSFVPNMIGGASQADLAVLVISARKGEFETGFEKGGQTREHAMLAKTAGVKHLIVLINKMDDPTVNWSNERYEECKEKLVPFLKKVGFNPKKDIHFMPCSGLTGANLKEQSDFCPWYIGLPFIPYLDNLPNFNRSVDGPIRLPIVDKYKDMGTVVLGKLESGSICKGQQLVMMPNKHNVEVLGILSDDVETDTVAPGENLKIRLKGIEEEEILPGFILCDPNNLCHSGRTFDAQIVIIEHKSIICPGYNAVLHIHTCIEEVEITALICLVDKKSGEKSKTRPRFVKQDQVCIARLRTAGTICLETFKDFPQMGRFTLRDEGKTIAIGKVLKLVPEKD
T1 sequence (Q96SW2 whole entry): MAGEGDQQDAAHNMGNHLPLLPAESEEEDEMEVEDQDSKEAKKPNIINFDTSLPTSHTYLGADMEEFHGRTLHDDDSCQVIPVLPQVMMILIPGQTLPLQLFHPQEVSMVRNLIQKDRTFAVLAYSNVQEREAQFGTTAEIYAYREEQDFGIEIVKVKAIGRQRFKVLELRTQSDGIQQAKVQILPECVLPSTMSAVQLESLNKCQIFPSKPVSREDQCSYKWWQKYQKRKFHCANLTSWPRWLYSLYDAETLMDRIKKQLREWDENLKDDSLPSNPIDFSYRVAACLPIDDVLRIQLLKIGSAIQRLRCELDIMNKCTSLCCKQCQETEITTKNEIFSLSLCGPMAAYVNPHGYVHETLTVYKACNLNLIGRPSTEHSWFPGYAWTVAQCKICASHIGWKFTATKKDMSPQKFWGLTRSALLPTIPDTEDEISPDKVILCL
T1 sequence (Q16531 whole entry partner): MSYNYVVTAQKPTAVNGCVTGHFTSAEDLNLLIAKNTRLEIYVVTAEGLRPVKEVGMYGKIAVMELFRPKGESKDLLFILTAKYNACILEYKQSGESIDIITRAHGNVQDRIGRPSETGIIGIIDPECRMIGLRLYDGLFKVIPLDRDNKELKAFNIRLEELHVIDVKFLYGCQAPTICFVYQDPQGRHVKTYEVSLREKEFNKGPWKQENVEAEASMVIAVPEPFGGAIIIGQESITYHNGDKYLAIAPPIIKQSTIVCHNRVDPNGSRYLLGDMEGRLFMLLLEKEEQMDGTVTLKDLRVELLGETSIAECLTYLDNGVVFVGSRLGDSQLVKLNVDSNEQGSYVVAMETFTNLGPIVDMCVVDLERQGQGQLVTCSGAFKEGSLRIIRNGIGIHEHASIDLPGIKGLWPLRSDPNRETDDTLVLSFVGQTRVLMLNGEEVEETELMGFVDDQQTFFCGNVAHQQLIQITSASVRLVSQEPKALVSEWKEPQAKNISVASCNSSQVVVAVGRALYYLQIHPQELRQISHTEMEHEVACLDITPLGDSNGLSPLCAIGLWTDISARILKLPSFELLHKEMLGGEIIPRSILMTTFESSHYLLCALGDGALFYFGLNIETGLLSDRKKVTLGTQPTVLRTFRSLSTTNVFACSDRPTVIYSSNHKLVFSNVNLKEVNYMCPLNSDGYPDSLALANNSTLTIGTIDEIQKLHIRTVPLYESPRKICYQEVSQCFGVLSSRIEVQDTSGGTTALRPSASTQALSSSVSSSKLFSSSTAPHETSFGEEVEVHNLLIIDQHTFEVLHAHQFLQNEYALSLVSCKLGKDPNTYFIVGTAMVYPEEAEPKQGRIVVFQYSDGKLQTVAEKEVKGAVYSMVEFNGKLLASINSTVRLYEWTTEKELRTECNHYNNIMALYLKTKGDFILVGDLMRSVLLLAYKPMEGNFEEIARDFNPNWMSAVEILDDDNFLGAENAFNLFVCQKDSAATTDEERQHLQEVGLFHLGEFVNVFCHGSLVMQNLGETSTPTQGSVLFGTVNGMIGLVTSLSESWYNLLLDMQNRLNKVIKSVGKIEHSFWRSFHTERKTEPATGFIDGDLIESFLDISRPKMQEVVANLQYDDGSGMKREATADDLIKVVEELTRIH

O=C1CCC(N2Cc3cc(CNC(=O)C(F)(F)c4ccc(Cl)cc4)ccc3C2=O)C(=O)N1 (stereo not drawn) [Compound D, 2-(4-chlorophenyl)-N-((2-(2,6-dioxopiperidin-3-yl)-1-oxoisoindolin-5-yl)methyl)-2,2-difluoroacetamide]
levels of GSPT1 in engrafted leukemia cells (GSPT1 [1]; 2.5 mg/kg twice a day, 3 doses, 17 samples): decreased in RF or BM, or in both RF and BM in the majority of 17 samples tested
GSPT1 reduction (GSPT1 [1]; Pt120287 and 110555): clear GSPT1 reduction in both RF and BM
GSPT1 reduction (GSPT1 [1]; Pt130607 and 150250): did not show dramatic GSPT1 reduction
apoptosis ([2]; 4 hours): not observed
apoptosis, high vs low LSC17 score samples ([2]; 24 hours): induced apoptosis at higher levels in samples with high LSC17 scores
induction of apoptosis, number of samples ([2]; 24 hours, concentration-dependent): observed in 3 of the 10 samples tested
live cells ([2]; Section 6.3 samples): reduction of live cells
apoptosis ([2]; Section 6.3 samples, 24 hours): Increased apoptosis
cell numbers ([2]; with increased concentration, 24 hours): reduced cell numbers for most samples
expression of myeloid differentiation marker CD15 ([3]; 3 representative samples): clear increased expression
CD11b+ leukemia cells ([3]; Patient 130826): decreased CD11b+ leukemia cells
expression of monocytic cell marker CD14 ([3]; graft of patient 120287): induced expression of monocytic cell marker CD14
CD11b on grafted cells ([3]; patient 150250): increased
CD14+ cells ([3]; patient sample 100474): only eliminated CD14+ cells
CD15 expression ([3]; patient sample 120093): induced CD15 expression
CD34+ cell population ([3]; patient sample 120093): reduced CD34+ cell population
CD34+ cells in the graft ([3]; patient samples 100348 and 130826): reduced CD34+ cells
stability in formulation [4]: not stable in the formulation over time
GSPT1 degradation, high vs low LSC17 score samples (GSPT1 [5]; 100 nM, 24 hours): samples with high LSC17 scores had significantly higher GSPT1 degradation
effect on reduction of GSPT1 levels, concentration dependence (GSPT1 [5]; 3, 30, 100 nM): concentration dependent
GSPT1 expression in AML cells (GSPT1 [5]; Section 6.3 samples, 24 hours exposure): decreased GSPT1 expression
GSPT1 levels in AML cells (GSPT1 [5]; ten primary AML patient samples, 4 and 24 hours, vs control): reduced GSPT1 levels as early as 4 hours post treatment
human graft remaining after treatment ([6]; NOD/SCID, 4 weeks): 5-10%
percentage of CD34+ cells ([6]; NOD/SCID, 4 weeks): did not decrease the percentage of CD34+ cells
CD34+CD19+ primitive lymphoid cells [6]: significantly decreased
CD34+CD33+ primitive myeloid cells [6]: not targeted
absolute number of CD34+ cells [6]: significantly reduced
number of CD19+ lymphocytes [6]: significantly decreased
percentages of CD34+CD38− primary cells [6]: not specifically targeted
proportion of CD33+ myeloid cells [6]: increased
